Where two headings read alike, the source gives them in different places. Each block holds one compound with its values, some of them ahead of it.
Test system: Ba/F3 LMNA-NTRK1-G667C cells
Experiment: Proliferation of Ba/F3 LMNA-NTRK1-G667C cells (CellTiter-Glo)
Format: cell-based, mouse
Description: Ba/F3 LMNA-NTRK1-G667C is a stable transgenic cell line constructed by KYinno Biotechnology Co., Ltd. on mouse primary B cell Ba/F3 wherein NTRK1 has a mutation of G to Cat position 667 and is highly expressed and fused with LMNA to form LMNA-NTRK1-G667C. • [Test method]: Promega's CellTiter-Glo® Luminescent Cell Viability Assay kit was used to evaluate the inhibitory activity of the compounds on the proliferation of Ba/F3 LMNA-NTRK1-G667C cells. • [Instrument]: Spectramax M3 multifunctional microplate reader from Molecular Devices. • [Test materials]: Ba/F3 LMNA-NTRK1-G667C cell line (constructed by KYinno Co., Ltd. (Beijing)), 96-well transparent flat-bottomed black-walled cell culture plate (Corning, cat #3603), RPMI-1640 media (GE, cat #SH30027.01), fetal bovine serum FBS (Thermo Fisher, cat #10099-141), CellTiter-Glo® Luminescent Cell Viability Assay kit (Promega, cat #G7572), PBS (Solarbio, cat #P1020), DMSO (Sigma, cat #D2650). • [Experimental procedure]: When resuscitating Ba/F3 LMNA-NTRK1-G667C cells, the freezing tube was quickly shaken in a 37° C. water bath to melt within 1 minute. The thawed cell suspension was mixed uniformly with RPMI1640 medium containing 10% FBS, centrifuged at 1000 rpm for 5 minutes, and the supernatant discarded. 5 mL of complete medium (RPMI1640 medium with 10% FBS) was taken to resuspend the cell pellets, charged into a cell culture flask with a bottom area of 25 cm^2, and incubated in a cell incubator at 37° C., 95% humidity and 5% CO2. Cells were allowed to passage when the number of cells reached about 10^6 cells/mL. For cell passage, the old cell suspension was directly pipetted evenly, 1/5 of the cell suspension was kept, 4 mL of new complete medium was added, after pipetting evenly, the cell flask was placed in the cell incubator for further culturing. Cell plating was performed when the number of cells reached about 10^6 cells/mL again. For cell plating, 1/5 of the cell suspension was kept for further culturing as in the cell passage method, and the remaining 4/5 of the cell suspension was placed in a 15 mL centrifuge tube, detected for cell viability by Trypan blue exclusion method to ensure that cell viability was above 90%. A cell suspension with a density of 5.56×10^4 viable cells/mL was prepared with complete medium, and 90 μL of such cell suspension was added to a 96-well cell culture plate to obtain the cell density of 5000 viable cells/mL in the cell culture plate. A control group containing no cells, no compound and only complete medium (i.e. culture medium control) and a control group containing no compound but containing cells (i.e. cell control) were set. The cell plate was placed in a cell incubator overnight. The 10 mM compound stock solution in DMSO was first serially diluted with DMSO at a dilution factor of 3.16 times, to obtain 9 concentrations, and the 10th concentration was set as DMSO control without compound. Then, PBS was used to dilute the DMSO solutions of compounds of different concentrations, at a dilution factor of 100 times, so that the DMSO concentration in the compound solution of each concentration was 1%. Finally, 10 μL of each of the above solutions was added to the corresponding cell culture plate, so that the initial compound concentration was 10 μM, with the remaining concentrations being successively diluted at a dilution factor of 3.16 times, and the DMSO content in the cell culture plate was 0.1%. The cell plate was placed in a cell incubator and cultured for 72 hours. For endpoint detection, the CellTiter-Glo reagent was melted, and the cell plate was moved to room temperature to equilibrate for 30 minutes, added with 100 μL of CellTiter-Glo for each well, and shaken on an orbital shaker for 5 minutes to fully lyse the cells. The plate was kept at room temperature for 20 minutes to stabilize the luminescence signal, and the luminescence value of each well was scanned with a multi-functional microplate reader at full wavelength. • [Test samples] […]

[1] = Mus musculus, BaF3, 72 h, Table 4, 72 hours, read-out: Ba/F3 LMNA-NTRK1-G667C, IC50
[2] = Mus musculus, BaF3, Table 4-2, separate test, read-out: Ba/F3 LMNA-NTRK1-G667C, IC50
[3] = Mus musculus, BaF3, Table 9, read-out: Ba/F3 LMNA-NTRK1-G667C cell proliferation inhibitory activity (IC50)
[4] = Mus musculus, BaF3, Table 4-1, separate test, read-out: Ba/F3 LMNA-NTRK1-G667C, IC50

Structure (SMILES): CCn1ncc2cc(Oc3ccc(NC(=O)c4ccc(C)n(-c5ccc(F)cc5)c4=O)cc3F)c(-c3cn[nH]c3)cc21 [Example 3, N-(3-fluoro-4-(1-ethyl-6-(1H-pyrazol-4-yl)-1H-indazol-5-yloxy)phenyl)-1-(4-fluorophenyl)-6-methyl-2-oxo-1,2-dihydmpyridine-3-carboxamide]
IC50 [1]: 1.6 nM

Structure (SMILES): Cn1ncc2cc(Oc3ccc(NC(=O)c4ccc(C(F)(F)F)n(-c5ccc(F)cc5)c4=O)cc3F)c(-c3cn[nH]c3)cc21 [Example 1, N-(3-fluoro-4-(1-methyl-6-(1H-pyrazol-4-yl)-1H-indazol-5-yloxy)phenyl)-1-(4-fluorophenyl)-6-trifluoromethyl-2-oxo-1,2-dihydmpyridine-3-carboxamide monomethanesulfonate]
IC50 [1]: 2 nM

Structure (SMILES): Cn1ncc2cc(Oc3ccc(NC(=O)c4ccc(OC5CC5)n(-c5ccc(F)cc5)c4=O)cc3F)c(-c3cn[nH]c3)cc21 [Example 15, N-(3-fluoro-4-(1-methyl-6-(1H-pyrazol-4-yl)-1H-indazol-5-yloxy)phenyl)-1-(4-fluorophenyl)-6-cyclopropoxy-2-oxo-1,2-dihydropyridine-3-carboxamide]
IC50 [2]: 10.8 nM

Structure (SMILES): Cc1ccc(C(=O)Nc2ccc(Oc3cc4cnn(C(C)C)c4cc3-c3cn[nH]c3)c(F)c2)c(=O)n1-c1ccc(F)cc1 [Example 4, N-(3-fluoro-4-(1-isopropyl-6-(1H-pyrazol-4-yl)-1H-indazol-5-yloxy)phenyl)-1-(4-fluorophenyl)-6-methyl-2-oxo-1,2-dihydmpyridine-3-carboxamide]
IC50 [1]: 2.8 nM

Structure (SMILES): CCOc1ccc(C(=O)Nc2ccc(Oc3cc4cnn(C)c4cc3-c3cn[nH]c3)c(F)c2)c(=O)n1-c1ccc(F)cc1 [Example 14, N-(3-fluoro-4-(1-methyl-6-(1H-pyrazol-4-yl)-1H-indazol-5-yloxy)phenyl)-1-(4-fluorophenyl)-6-ethoxy-2-oxo-12-dihydropyridine-3-carboxamide]
IC50 [2]: 8.6 nM

Structure (SMILES): CC(C)c1ccc(C(=O)Nc2ccc(Oc3cc4cnn(C)c4cc3-c3cn[nH]c3)c(F)c2)c(=O)n1-c1ccc(F)cc1 [Example 6, N-(3-fluoro-4-(1-methyl-6-(1H-pyrazol-4-yl)-1H-indazol-5-yloxy)phenyl)-1-(4-fluorophenyl)-6-isopropyl-2-oxo-1,2-dihydropyridine-3-carboxamide]
IC50 [1]: 0.66 nM

Structure (SMILES): Cn1ncc2cc(Oc3ccc(NC(=O)c4ccc(C5CC5)n(-c5ccc(F)cc5)c4=O)cc3F)c(-c3cn[nH]c3)cc21 [Example 2, N-(3-fluoro-4-(1-methyl-6-(1H-pyrazol-4-yl)-1H-indazol-5-yloxy)phenyl)-1-(4-fluorophenyl)-6-cyclopropyl-2-oxo-1,2-dihydmpyridine-3-carboxamide]
IC50 [1]: 1.1 nM

Structure (SMILES): CCn1ncc2cc(Oc3ccc(NC(=O)c4ccc(OC)n(-c5ccc(F)cc5)c4=O)cc3F)c(-c3cn[nH]c3)cc21 [Example 23, N-(3-fluoro-4-(1-ethyl-6-(1H-pyrazol-4-yl)-1H-indazol-5-yloxy)phenyl)-1-(4-fluorophenyl)-6-methoxy-2-oxo-1,2-dihydropyridine-3-carboxamide]
IC50 [4]: 1 nM

Structure (SMILES): CSc1ccc(C(=O)Nc2ccc(Oc3cc4cnn(C)c4cc3-c3cn[nH]c3)c(F)c2)c(=O)n1-c1ccc(F)cc1 [Example 11, N-(3-fluoro-4-(1-methyl-6-(1H-pyrazol-4-yl)-1H-indazol-5-yloxy)phenyl)-1-(4-fluorophenyl)-6-methylthio-2-oxo-1,2-dihydropyidine-3-carboxamide]
IC50 [2]: 10.5 nM

Structure (SMILES): CCOc1ccc(C(=O)Nc2ccc(Oc3cc4cnn(CC)c4cc3-c3cn[nH]c3)c(F)c2)c(=O)n1-c1ccc(F)cc1 [Example 24, N-(3-fluoro-4-(1-ethyl-6-(1H-pyrazol-4-yl)-1H-indazol-5-yloxy)phenyl)-1-(4-fluorophenyl)-6-ethoxy-2-oxo-12-dihydropyridine-3-carboxamide]
IC50 (Table 4-2, separate test, read-out: Ba/F3 LMNA-NTRK1-G667C, IC50): 17.3 nM

Structure (SMILES): CCc1ccc(C(=O)Nc2ccc(Oc3cc4cnn(CC)c4cc3-c3cn[nH]c3)c(F)c2)c(=O)n1-c1ccc(F)cc1 [Example 18, N-(3-fluoro-4-(1-ethyl-6-(1H-pyrazol-4-yl)-1H-indazol-5-yloxy)phenyl)-1-(4-fluorophenyl)-6-ethyl-2-oxo-1,2-dihydropyridine-3-carboxamide]
IC50 [4]: 1 nM

Structure (SMILES): COc1ccc(C(=O)Nc2ccc(Oc3cc4cnn(C)c4cc3-c3cn[nH]c3)c(F)c2)c(=O)n1-c1ccc(F)cc1 [Example 12, N-(3-fluoro-4-(1-methyl-6-(1H-pyrazol-4-yl)-1H-indazol-5-yloxy)phenyl)-1-(4-fluorophenyl)-6-methoxy-2-oxo-1,2-dihydropyridine-3-carboxamide]
IC50 [4]: < 1 nM

Structure (SMILES): CCc1ccc(C(=O)Nc2ccc(Oc3cc4cnn(C)c4cc3-c3cn[nH]c3)c(F)c2)c(=O)n1-c1ccc(F)cc1 [Example 5, N-(3-fluoro-4-(1-methyl-6-(1H-pyrazol-4-yl)-1H-indazol-5-yloxy)phenyl)-1-(4-fluorophenyl)-6-ethyl-2-oxo-1,2-dihydropyridine-3-carboxamide]
IC50 [1]: < 1 nM

Continued, values first:

IC50 [1]: 2410 nM
Structure (SMILES): O=C(Nc1cnn2ccc(N3CCC[C@@H]3c3cc(F)ccc3F)nc12)N1CC[C@H](O)C1 [LOXO-101, Larotrectinib, reference compound]

IC50 [2]: 17.5 nM
Structure (SMILES): CCn1ncc2cc(Oc3ccc(NC(=O)c4ccc(OC(C)C)n(-c5ccc(F)cc5)c4=O)cc3F)c(-c3cn[nH]c3)cc21 [Example 26, N-(3-fluoro-4-(1-ethyl-6-(1H-pyrazol-4-yl)-1H-indazol-5-yloxy)phenyl)-1-(4-fluorophenyl)-6-isopropoxy-2-oxo-1,2-dihydropyridine-3-carboxamide]

IC50 [3]: 33 nM
Structure (SMILES): Cc1ccc(C(=O)Nc2ccc(Oc3cc4cnn5c4c(c3-c3cn[nH]c3)CC5)c(F)c2)c(=O)n1-c1ccc(F)cc1 [Example 31, N-(4-((5-(1H-pyrazol-4-yl)-6,7-dihydropyrrolo[3,2,1-hi]-indazol-4-yl)oxy)-3-fluorophenyl)-1-(4-fluorophenyl)-6-methyl-2-oxo-1,2-dihydropyridine-3-carboxamide]

IC50 [1]: 1.1 nM
IC50 [4]: 1 nM
IC50 [2]: 14.1 nM
Structure (SMILES): Cc1ccc(C(=O)Nc2ccc(Oc3cc4cnn(C)c4cc3-c3cn[nH]c3)c(F)c2)c(=O)n1-c1ccc(F)cc1 [Merestinib, reference compound]

IC50 [3]: 19 nM
Structure (SMILES): CCOc1ccc(C(=O)Nc2ccc(Oc3cc4cnn5c4c(c3-c3cn[nH]c3)CC5)c(F)c2)c(=O)n1-c1ccc(F)cc1 [Example 32, N-(4-((5-(1H-pyrazol-4-yl)-6,7-dihydropyrrolo[3,2,1-hi]-indazol-4-yl)oxy)-3-fluorophenyl)-6-ethoxy-1-(4-fluorophenyl)-2-oxo-12-dihydropyridine-3-carboxamide]

IC50 [3]: 23.7 nM
Structure (SMILES): CC(C)Oc1ccc(C(=O)Nc2ccc(Oc3cc4cnn5c4c(c3-c3cn[nH]c3)CC5)c(F)c2)c(=O)n1-c1ccc(F)cc1 [Example 34, N-(4-((5-(1H-pyrazol-4-yl)-6,7-dihydropyrrolo[3,2,1-hi]-indazol-4-yl)oxy)-3-fluorophenyl)-1-(4-fluorophenyl)-6-isopropoxy-2-oxo-12-dihydropyrndine-3-carboxamide]

From patent publication US11952364B2, “TRK inhibitors useful as anticancer drugs” (TYLIGAND BIOSCIENCE (SHANGHAI) LIMITED, priority 2018, dated 2024)
